Reference: publication PMC6158709, “Chemical genetic inhibition of DEAD-box proteins using covalent complementarity” (Nucleic Acids Research, 2018)

How the values were obtained:
DDX3 (132-406) = molecular target: T1, DDX3 (132-406) (Homo sapiens, UniProt O00571); test: differential scanning fluorimetry; type: binding; conditions: saturating AMP; 4 μM protein, pH 7.5, 5 mM MgCl2
T1 construct: gene DDX3X; truncated, residues 132-406, recombinant, purified as previously described

DDX3 (132-607) = molecular target: T2, DDX3 (132-607) (Homo sapiens, UniProt O00571); test: coupled ATPase assay, RNA-dependent; type: biochemical; conditions: duplex RNA; four ATP concentrations
T2 construct: gene DDX3X; helicase core, residues 132-607, recombinant, purified as previously described

HA-eIF4A^ES = molecular target: T3, HA-eIF4A^ES (Saccharomyces cerevisiae, UniProt P10081); test: competition of N-propargylmaleimide labelling, click TAMRA, in gel fluorescence after HA immunoprecipitation; type: biochemical; conditions: covalent; yeast lysate, 10 μM AMP-acrylate followed by 10 μM NPM
T3 construct: gene TIF1; HA-tagged ES mutant in yeast lysate, immunoprecipitated after labelling

Dbp2 = molecular target: T4, Dbp2 (Saccharomyces cerevisiae, UniProt P24783, S161C); test: RNA duplex unwinding assay; type: biochemical; conditions: covalent; 0.5 μM enzyme, 2 mM ATP/MgCl2, pH 7.5, 5 min pre-incubation
T4 construct: full-length, expressed in E. coli BL21 (DE3) as 6xHis-SUMO fusion, incubated with SUMO protease
T4 sequence (P24783 whole entry S161C, the tested form may be a part): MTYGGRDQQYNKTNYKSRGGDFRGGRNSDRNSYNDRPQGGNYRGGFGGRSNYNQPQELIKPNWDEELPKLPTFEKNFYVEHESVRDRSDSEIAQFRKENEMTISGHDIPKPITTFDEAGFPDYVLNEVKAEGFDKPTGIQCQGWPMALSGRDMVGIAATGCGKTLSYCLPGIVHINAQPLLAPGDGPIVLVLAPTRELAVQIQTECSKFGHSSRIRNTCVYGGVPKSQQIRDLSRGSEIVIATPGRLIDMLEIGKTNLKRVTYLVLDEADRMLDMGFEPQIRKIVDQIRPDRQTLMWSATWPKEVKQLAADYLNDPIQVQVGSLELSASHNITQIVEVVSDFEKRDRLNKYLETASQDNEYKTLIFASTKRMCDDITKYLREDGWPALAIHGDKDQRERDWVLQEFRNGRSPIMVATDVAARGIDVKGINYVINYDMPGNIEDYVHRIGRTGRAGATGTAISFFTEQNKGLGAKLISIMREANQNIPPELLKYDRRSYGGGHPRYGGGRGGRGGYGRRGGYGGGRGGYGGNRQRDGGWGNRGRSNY

T1 sequence (O00571 132-406): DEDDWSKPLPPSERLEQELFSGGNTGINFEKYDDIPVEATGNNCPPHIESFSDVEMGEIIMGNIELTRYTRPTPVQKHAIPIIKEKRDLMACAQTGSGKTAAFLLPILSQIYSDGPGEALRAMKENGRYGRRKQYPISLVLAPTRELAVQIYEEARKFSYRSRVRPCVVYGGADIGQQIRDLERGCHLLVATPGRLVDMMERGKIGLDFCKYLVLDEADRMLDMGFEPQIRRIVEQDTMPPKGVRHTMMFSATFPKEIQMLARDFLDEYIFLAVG
T3 sequence (P10081 2-395): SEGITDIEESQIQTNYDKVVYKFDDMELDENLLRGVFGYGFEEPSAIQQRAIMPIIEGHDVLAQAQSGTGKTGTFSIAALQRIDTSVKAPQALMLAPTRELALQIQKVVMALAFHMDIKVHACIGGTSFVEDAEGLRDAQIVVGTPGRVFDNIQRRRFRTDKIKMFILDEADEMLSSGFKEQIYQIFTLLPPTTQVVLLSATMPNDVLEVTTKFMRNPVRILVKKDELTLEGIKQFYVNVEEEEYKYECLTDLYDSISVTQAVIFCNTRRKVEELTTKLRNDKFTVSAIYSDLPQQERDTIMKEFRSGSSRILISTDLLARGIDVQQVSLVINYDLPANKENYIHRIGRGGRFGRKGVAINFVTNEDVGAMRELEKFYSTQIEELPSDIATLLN
T2 sequence (O00571 132-607): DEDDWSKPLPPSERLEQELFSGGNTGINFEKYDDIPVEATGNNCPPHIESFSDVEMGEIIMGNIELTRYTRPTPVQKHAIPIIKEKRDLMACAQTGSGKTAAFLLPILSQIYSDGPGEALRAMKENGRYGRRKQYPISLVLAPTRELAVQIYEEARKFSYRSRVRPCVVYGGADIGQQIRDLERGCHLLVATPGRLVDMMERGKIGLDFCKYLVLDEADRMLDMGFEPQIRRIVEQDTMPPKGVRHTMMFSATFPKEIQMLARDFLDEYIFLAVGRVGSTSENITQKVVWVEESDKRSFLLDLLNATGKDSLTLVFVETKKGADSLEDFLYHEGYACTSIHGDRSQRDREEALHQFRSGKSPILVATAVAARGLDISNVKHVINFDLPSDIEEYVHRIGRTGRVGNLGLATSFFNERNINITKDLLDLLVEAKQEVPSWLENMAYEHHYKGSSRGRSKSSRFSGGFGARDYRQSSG

In the case of `Nc1ncnc2c1ncn2[C@@H]1O[C@H](COP(=O)(O)O)[C@@H](O)[C@H]1O` [AMP], the Tm (DDX3 (132-406)) is reported as “Saturating concentrations of AMP stabilizes DDX3^WT and DDX3^ES to the same extent”.

`Nc1ncnc2c1ncn2[C@@H]1O[C@H](COP(=O)(O)OP(=O)(O)OP(=O)(O)O)[C@@H](O)[C@H]1O` [ATP] was tested, and the “coupled ATPase assay, RNA-dependent” value (DDX3 (132-607)) was “both DDX3^WT and DDX3^ES hydrolyzed ATP in the presence of duplex RNA”.

In the case of `C=CC(=O)OP(=O)(O)OC[C@H]1O[C@@H](n2cnc3c(N)ncnc32)[C@H](O)[C@@H]1O` [AMP-acrylate], the NPM labeling (HA-eIF4A^ES) is reported as “labeling of HA-eIF4A^ES by NPM is competed by AMP-acrylate treatment” and the “fraction of RNA duplex unwound” value (Dbp2) is reported as “duplex unwinding by ES Dbp2 (S161C) is reduced by AMP-acrylate”.
